According to patent publication US20140121373A1, “PROCESS FOR PREPARING STABLE POLYMORPHIC FORM OF ERLOTINIB HYDROCHLORIDE” (CADILA HEALTHCARE LIMITED, priority 2011, published 2014):

Assay: Chemical stability study of the stable form of Erlotinib hydrochloride (description, HPLC impurities, moisture content, assay on storage)
Format: physicochemical
Settings: for Imp-1 (%) (N-(3-Ethynylphenyl)-6-(2-chloroethoxy)-7-(2-methoxyethoxy)-quinazolin-4-amine hydrochloride) / Imp-2 (%) (N-(3-Ethynylphenyl)-7-(2-chloroethoxy)-6-(2-methoxyethoxy)-quinazolin-4-amine hydrochloride): limit 0.15 w/w; for m/c (%): limit 0.5 w/w; for Assay (%), OAB: limit 98.0-102 w/w; for Description: limit White to off white; for HPLC single maximum impurity content / HPLC total impurity content / water content: storage condition not stated
Protocol: (Refrigerator), 25° C.±2° C.[…], 30° C.±2° C./65%±5% RH (Real Time) and 40° C.±2° C./75%±5% RH of Erlotinib Hydrochloride
Differential Scanning Calorimetry (DSC): Melting points are determined by means of a DSC thermogram using a Pyris-1 make Perkin Elmer. DSC (Differential Scanning Calorimetry) is the technique of dynamic differential Calorimetry. Using this technique, the melting temperature can be measured by heating the sample until a thermal, i.e. an endothermic or exothermic, reaction is detected by means of ultrasensitive sensors. The DSC cell/sample chamber was purged with 100 ml/min of ultra-high purity nitrogen. The instrument was calibrated with high purity Indium. The sample was placed into an open aluminum DSC pan and measured against an empty reference pan. About 2 mg of sample being placed into the bottom of the pan and lightly tapped down to ensure good contact with the pan. The instrument was programmed to heat at a heating rate of 10° C./min in the temperature range between 50° C. and 300° C. • Microscope: A Lieca Microscope with Linkam Hot stage microscopy (TMS-94) system with polarized light, CCD camera and Linksys 32 data software. • HPLC: High Performance Liquid Chromatography Separation Module with PDA detector, Make Waters, Model No 2695. • KF: Moisture content was analyzed by using Karl Fisher Autotitrator 795 KFT Titrino make Metrohm.

[1] = 5° C. ± 3° C. (Refrigerator), Month 1
[2] = 5° C. ± 3° C. (Refrigerator), Month 2
[3] = 5° C. ± 3° C. (Refrigerator), Month 3
[4] = 5° C. ± 3° C. (Refrigerator), Month 6
[5] = 25° C. ± 2° C./60% ± 5% RH, Month 1
[6] = 25° C. ± 2° C./60% ± 5% RH, Month 2
[7] = 25° C. ± 2° C./60% ± 5% RH, Month 3
[8] = 25° C. ± 2° C./60% ± 5% RH, Month 6
[9] = 30° C. ± 2° C./65% ± 5% RH (Real Time), Month 1
[10] = 30° C. ± 2° C./65% ± 5% RH (Real Time), Month 2
[11] = 30° C. ± 2° C./65% ± 5% RH (Real Time), Month 3
[12] = 30° C. ± 2° C./65% ± 5% RH (Real Time), Month 6
[13] = 40° C. ± 2° C./75% ± 5% RH, Month 1
[14] = 40° C. ± 2° C./75% ± 5% RH, Month 2
[15] = 40° C. ± 2° C./75% ± 5% RH, Month 3
[16] = 40° C. ± 2° C./75% ± 5% RH, Month 6

## C#Cc1cccc(Nc2ncnc3cc(OCCOC)c(OCCOC)cc23)c1.Cl [Erlotinib hydrochloride, 4-(3-Ethynylphenylamino)-6,7-bis(2-methoxyethoxy)-quinazoline]
5° C. to 40° C./75% RH storage conditions of the chemical stability table
  period over which stable with all impurities in limit: ≥ 6 months
[1]
  Total Imp: 0.12 % w/w
  Imp-1 (%) (N-(3-Ethynylphenyl)-6-(2-chloroethoxy)-7-(2-methoxyethoxy)-quinazolin-4-amine hydrochloride): 0.05%
  Imp-2 (%) (N-(3-Ethynylphenyl)-7-(2-chloroethoxy)-6-(2-methoxyethoxy)-quinazolin-4-amine hydrochloride): 0.07%
  m/c (%): 0.16%
  Assay (%), OAB: 99.5%
  Description: Complies
[2]
  Total Imp: 0.13 % w/w
  Imp-1 (%) (N-(3-Ethynylphenyl)-6-(2-chloroethoxy)-7-(2-methoxyethoxy)-quinazolin-4-amine hydrochloride): 0.05%
  Imp-2 (%) (N-(3-Ethynylphenyl)-7-(2-chloroethoxy)-6-(2-methoxyethoxy)-quinazolin-4-amine hydrochloride): 0.08%
  m/c (%): 0.15%
  Assay (%), OAB: 99.6%
  Description: Complies
[3]
  Total Imp: 0.13 % w/w
  Imp-1 (%) (N-(3-Ethynylphenyl)-6-(2-chloroethoxy)-7-(2-methoxyethoxy)-quinazolin-4-amine hydrochloride): 0.05%
  Imp-2 (%) (N-(3-Ethynylphenyl)-7-(2-chloroethoxy)-6-(2-methoxyethoxy)-quinazolin-4-amine hydrochloride): 0.08%
  m/c (%): 0.15%
  Assay (%), OAB: 99.5%
  Description: Complies
[4]
  Total Imp: 0.14 % w/w
  Imp-1 (%) (N-(3-Ethynylphenyl)-6-(2-chloroethoxy)-7-(2-methoxyethoxy)-quinazolin-4-amine hydrochloride): 0.06%
  Imp-2 (%) (N-(3-Ethynylphenyl)-7-(2-chloroethoxy)-6-(2-methoxyethoxy)-quinazolin-4-amine hydrochloride): 0.08%
  m/c (%): 0.15%
  Assay (%), OAB: 99.8%
  Description: Complies
[5]
  Total Imp: 0.13 % w/w
  Imp-1 (%) (N-(3-Ethynylphenyl)-6-(2-chloroethoxy)-7-(2-methoxyethoxy)-quinazolin-4-amine hydrochloride): 0.05%
  Imp-2 (%) (N-(3-Ethynylphenyl)-7-(2-chloroethoxy)-6-(2-methoxyethoxy)-quinazolin-4-amine hydrochloride): 0.08%
  m/c (%): 0.14%
  Assay (%), OAB: 99.9%
  Description: Complies
[6]
  Total Imp: 0.13 % w/w
  Imp-1 (%) (N-(3-Ethynylphenyl)-6-(2-chloroethoxy)-7-(2-methoxyethoxy)-quinazolin-4-amine hydrochloride): 0.05%
  Imp-2 (%) (N-(3-Ethynylphenyl)-7-(2-chloroethoxy)-6-(2-methoxyethoxy)-quinazolin-4-amine hydrochloride): 0.08%
  m/c (%): 0.13%
  Assay (%), OAB: 99.2%
  Description: Complies
[7]
  Total Imp: 0.13 % w/w
  Imp-1 (%) (N-(3-Ethynylphenyl)-6-(2-chloroethoxy)-7-(2-methoxyethoxy)-quinazolin-4-amine hydrochloride): 0.05%
  Imp-2 (%) (N-(3-Ethynylphenyl)-7-(2-chloroethoxy)-6-(2-methoxyethoxy)-quinazolin-4-amine hydrochloride): 0.08%
  m/c (%): 0.14%
  Assay (%), OAB: 99.3%
  Description: Complies
[8]
  Total Imp: 0.13 % w/w
  Imp-1 (%) (N-(3-Ethynylphenyl)-6-(2-chloroethoxy)-7-(2-methoxyethoxy)-quinazolin-4-amine hydrochloride): 0.05%
  Imp-2 (%) (N-(3-Ethynylphenyl)-7-(2-chloroethoxy)-6-(2-methoxyethoxy)-quinazolin-4-amine hydrochloride): 0.08%
  m/c (%): 0.14%
  Assay (%), OAB: 99.9%
  Description: Complies
[9]
  Total Imp: 0.14 % w/w
  Imp-1 (%) (N-(3-Ethynylphenyl)-6-(2-chloroethoxy)-7-(2-methoxyethoxy)-quinazolin-4-amine hydrochloride): 0.06%
  Imp-2 (%) (N-(3-Ethynylphenyl)-7-(2-chloroethoxy)-6-(2-methoxyethoxy)-quinazolin-4-amine hydrochloride): 0.08%
  m/c (%): 0.12%
  Assay (%), OAB: 99.6%
  Description: Complies
[10]
  Total Imp: 0.13 % w/w
  Imp-1 (%) (N-(3-Ethynylphenyl)-6-(2-chloroethoxy)-7-(2-methoxyethoxy)-quinazolin-4-amine hydrochloride): 0.05%
  Imp-2 (%) (N-(3-Ethynylphenyl)-7-(2-chloroethoxy)-6-(2-methoxyethoxy)-quinazolin-4-amine hydrochloride): 0.08%
  m/c (%): 0.15%
  Assay (%), OAB: 99.4%
  Description: Complies
[11]
  Total Imp: 0.13 % w/w
  Imp-1 (%) (N-(3-Ethynylphenyl)-6-(2-chloroethoxy)-7-(2-methoxyethoxy)-quinazolin-4-amine hydrochloride): 0.05%
  Imp-2 (%) (N-(3-Ethynylphenyl)-7-(2-chloroethoxy)-6-(2-methoxyethoxy)-quinazolin-4-amine hydrochloride): 0.08%
  m/c (%): 0.15%
  Assay (%), OAB: 99.4%
  Description: Complies
[12]
  Total Imp: 0.14 % w/w
  Imp-1 (%) (N-(3-Ethynylphenyl)-6-(2-chloroethoxy)-7-(2-methoxyethoxy)-quinazolin-4-amine hydrochloride): 0.06%
  Imp-2 (%) (N-(3-Ethynylphenyl)-7-(2-chloroethoxy)-6-(2-methoxyethoxy)-quinazolin-4-amine hydrochloride): 0.08%
  m/c (%): 0.14%
  Assay (%), OAB: 99.8%
  Description: Complies
[13]
  Total Imp: 0.14 % w/w
  Imp-1 (%) (N-(3-Ethynylphenyl)-6-(2-chloroethoxy)-7-(2-methoxyethoxy)-quinazolin-4-amine hydrochloride): 0.06%
  Imp-2 (%) (N-(3-Ethynylphenyl)-7-(2-chloroethoxy)-6-(2-methoxyethoxy)-quinazolin-4-amine hydrochloride): 0.08%
  m/c (%): 0.15%
  Assay (%), OAB: 99.3%
  Description: Complies
[14]
  Total Imp: 0.13 % w/w
  Imp-1 (%) (N-(3-Ethynylphenyl)-6-(2-chloroethoxy)-7-(2-methoxyethoxy)-quinazolin-4-amine hydrochloride): 0.05%
  Imp-2 (%) (N-(3-Ethynylphenyl)-7-(2-chloroethoxy)-6-(2-methoxyethoxy)-quinazolin-4-amine hydrochloride): 0.08%
  m/c (%): 0.16%
  Assay (%), OAB: 99.5%
  Description: Complies
[15]
  Total Imp: 0.13 % w/w
  Imp-1 (%) (N-(3-Ethynylphenyl)-6-(2-chloroethoxy)-7-(2-methoxyethoxy)-quinazolin-4-amine hydrochloride): 0.05%
  Imp-2 (%) (N-(3-Ethynylphenyl)-7-(2-chloroethoxy)-6-(2-methoxyethoxy)-quinazolin-4-amine hydrochloride): 0.08%
  m/c (%): 0.16%
  Assay (%), OAB: 99.9%
  Description: Complies
[16]
  Total Imp: 0.14 % w/w
  Imp-1 (%) (N-(3-Ethynylphenyl)-6-(2-chloroethoxy)-7-(2-methoxyethoxy)-quinazolin-4-amine hydrochloride): 0.06%
  Imp-2 (%) (N-(3-Ethynylphenyl)-7-(2-chloroethoxy)-6-(2-methoxyethoxy)-quinazolin-4-amine hydrochloride): 0.08%
  m/c (%): 0.17%
  Assay (%), OAB: 99.4%
  Description: Complies
Initial
  HPLC single maximum impurity content: 0.08 % w/w
  HPLC total impurity content: 0.13 % w/w
  water content: 0.14 % w/w
After 3 months
  HPLC single maximum impurity content: 0.08 % w/w
  HPLC total impurity content: 0.13 % w/w
  water content: 0.14 % w/w
After 6 months
  HPLC single maximum impurity content: 0.08 % w/w
  HPLC total impurity content: 0.13 % w/w
  water content: 0.14 % w/w
